Test results published in paper PMC11676693, “Population Pharmacokinetic and Pharmacodynamic Study of Palbociclib in Children and Young Adults with Recurrent, Progressive, or Refractory Brain Tumors” (Pharmaceutics, 2024).
Where two headings read alike, the source gives them in different places.

What was measured:
[1] = set-up: method as in PMID 37553297; conditions: mean (range), 12 children, cited from earlier work
[2] = cited from earlier work
[3] = in vivo
Experimental: The patients included in this palbociclib population pharmacokinetic/pharmacodynamic analysis were treated in the phase I clinical trial PBTC-042 (NCT02255461), which evaluated single-agent oral palbociclib therapy in children and young adults with recurrent, progressive, or refractory brain tumors. Details of this clinical trial have been reported elsewhere. In adults treated with palbociclib, myelosuppression has been the main dose-limiting toxicity (DLT) reported, and the toxicity is greater in more heavily pretreated patients. Thus, patients in this pediatric trial were divided into two strata: stratum I included patients who were not heavily pretreated, while stratum II included heavily pretreated patients. The starting dosage for stratum I was 50 mg/m^2, with planned dose escalations to 75 mg/m^2 and 95 mg/m^2. The planned starting dosage for stratum II was one dosage level below the MTD for stratum I. The Institutional Review Board approved this trial and written informed consent was obtained from patients, parents, or legal guardians before the onset of any study procedures. Assent was obtained from patients as appropriate based on local institutional guidelines.
Pharmacokinetic studies of oral palbociclib (PD-0332991) were performed on course 1, day 1 and day 21 to evaluate the population pharmacokinetics of palbociclib. On day 2 of course 1, the palbociclib dose was held. On day 1 of course 1, palbociclib single-dose serial blood samples were drawn pre-dose and 0.5, 1, 2, 4, 8 (±1), 24 (±4), and 48 (±4) hours (immediately prior to the day 3 dose) after the oral dose. On day 21 of course 1, palbociclib steady-state serial blood samples were collected pre-dose and 1, 2, 4, 8 (±1), and 24 (±4) hours (immediately prior to the day 22 dose) after the dose.
At each time point, whole blood (2 mL) was collected in K2EDTA tubes, spun to plasma within one hour of collection, and stored at −20 °C until analysis. Palbociclib plasma concentrations were measured using a validated liquid chromatography–mass spectrometric assay method with a lower limit of quantitation (LLOQ) of 1 ng/mL [14].
Palbociclib serum concentration–time data from course 1, day 1 and day 21 were analyzed using nonlinear mixed-effects modeling implemented in Monolix software version 2023R1 (Lixoft, Antony, France) using the Stochastic Approximation Expectation Maximization (SAEM) algorithm. Inter-individual and inter-occasion variabilities were assumed to be log-normally distributed. A proportional residual error model was used to quantify the unexplained variability of the model. Error terms were assumed to be normally distributed. A one-compartment model with first-order absorption, the absorption lag time, and first-order elimination was used. Specifically, the PK parameters estimated included the absorption lag time (Tlag), absorption rate constant (ka), apparent oral volume (V/F), and apparent oral clearance (CL/F), where F was the bioavailability, which was not identifiable given only oral dosing was used. The inter-individual variability was estimated for all parameters. Additionally, the inter-occasion variability was estimated for the CL/F. The palbociclib dosage (i.e., the palbociclib dosage normalized to the patient body surface area (BSA)) was used as the model input. Data below the limit of quantitation (BLQ) were censored according to the Beal method M3 [17], as implemented in Monolix. […]

[4] = test system: proliferating neutrophils in the bone marrow compartment (ANC); assay: Population pharmacodynamic model of ANC (neutrophil dynamics); format: in vivo, children and young adults
Experimental: (§1) A complete blood count (CBC) with differential was performed pre-therapy, weekly during course 1, and then weekly during courses 2 to 26. The CBC provided platelet and absolute neutrophil counts (ANCs).
(§2) The model describing the ANC and platelet dynamics has been previously described. The model for the ANC consisted of a bone marrow compartment with proliferating neutrophils, three transient compartments that represent the maturation process of the neutrophils from blasts to circulating neutrophils, and a circulating neutrophil compartment. The model included the negative feedback effects of endogenous G-CSF, which affected the growth rate of proliferating cells in a manner inversely proportional to the concentration of circulating neutrophils. We assumed that palbociclib only affected the proliferating neutrophils in the bone marrow compartment. We used a similar structural model for platelet dynamics. The model describing the neutrophil dynamics is shown in Equations (1)–(5) and Figure S1. (1) NPBM/dt=kinKM/KM+NcircIC50n/IC50n+Cpalblociclibn−kbpNPBM (2) dNT1/dt=kbpNPBM−NT1 (3) dNT2/dt=kbpNT1−NT2 (4) dNT3/dt=kbpNT2−NT3 (5) dNcirc/dt=kpbNT3−koutNcirc
The model parameters were as follows: NPBM: proliferating bone marrow stem cells; NT1, NT2, and NT3: transient compartments describing the maturation phases of the neutrophils; Ncirc: circulating neutrophils. Note that we were only able to observe this compartment. The model parameters were defined as follows: kin (1/days): the stem cell proliferation rate; kbp (1/days): the transition rate between transient compartments (the mean transition time from the bone marrow to the circulating neutrophils is 4/kbp); kout (1/days): the elimination rate of circulating neutrophils; KM (10^3/µL): the half-saturation effect of the G-CSF negative feedback; IC50 (nM) and n; the half-saturation effect and Hill coefficient of the palbociclib effects on the bone marrow; and Cpalbociclib (nM): the concentration of palbociclib in the plasma. Prior to treatment, the system was assumed to be steady-state, where Ncirc0 was the steady-state circulating neutrophil level. The following relationship between the model parameters was needed for the system to maintain steady state prior to treatment (Equation (6)). (6) KM=kbp/kin−kbpNcirc0
For this relationship to be positive, kin > kpb. To ensure this requirement, we defined kpb = fkbp·kin where fkbp ∈ [0, 1] and estimated fkbp. In addition, the initial conditions for the system at steady state (i.e., the steady-state solution to the system in the absence of the drug) are (Equation (7)) (7) kout/kbpNcirc0, kout/kbpNcirc0, kout/kbpNcirc0, kout/kbpNcirc0, Ncirc0
The parameters for the pharmacodynamic model were estimated using nonlinear mixed-effects modeling with the SAEM algorithm as implemented in the Monolix® software version 2023R1 (Lixoft, Antony, France). The palbociclib pharmacokinetics were fixed to each individual’s post hoc estimated parameters (as determined above). The inter-individual and inter-occasion variability were assumed to be log-normally distributed for all parameters except fkbp, which was assumed to be a logit distribution, so its value will be between 0 and 1. A proportional residual error model was used to quantify the unexplained variability of the model. Error terms were assumed to be normally distributed.

platelets (PLT) = assay: Population pharmacodynamic model of platelet (PLT) dynamics; format: in vivo, children and young adults
Experimental: as §1
as §2, with “The model describing the neutrophil dynamics is shown in Equations (1)–(5) and Figure S1. (1) NPBM/dt=kinKM/KM+NcircIC50n/IC50n+Cpalblociclibn−kbpNPBM (2) dNT1/dt=kbpNPBM−NT1 (3) dNT2/dt=kbpNT1−NT2 (4) dNT3/dt=kbpNT2−NT3 (5) dNcirc/dt=kpbNT3−koutNcirc” left out
The parameters for the pharmacodynamic model were estimated using nonlinear mixed-effects modeling with the SAEM algorithm as implemented in the Monolix® software version 2023R1 (Lixoft, Antony, France). The palbociclib pharmacokinetics were fixed to each individual’s post hoc estimated parameters (as determined above). […] A proportional residual error model was used to quantify the unexplained variability of the model. […]

[5] = median (5th–95th percentile), individual model estimates, first two courses

CC(=O)c1c(C)c2cnc(Nc3ccc(N4CCNCC4)cn3)nc2n(C2CCCC2)c1=O [palbociclib]
steady state apparent oral clearance ([1]; capsule and liquid formulations): 40.4 (21.1–102.0) L/h/m^2
half-life [1]: 27.9 (4.5–86.8) hours
apparent oral clearance ([2]; Courlet, 45 women with metastatic breast cancer, two-compartment model): 67 L/h
apparent oral clearance ([2]; Courlet, 45 women with metastatic breast cancer): 39 L/h/m^2
apparent oral clearance ([2]; Royer, adults, 124 patients): 34 L/h/m^2
apparent oral clearance ([2]; Royer, adults, therapeutic drug monitoring data, 124 patients): 58 L/h
apparent oral clearance ([2]; adults, 143 patients): 34 L/h/m^2
apparent oral clearance ([2]; adults, therapeutic drug monitoring data, 143 patients): 57 L/h
increase of apparent oral clearance ([2]; taken under fasting conditions along with concomitant proton pump inhibitors): 56%
Inter-patient variability (IIV) of CL/F ([3]; human): 0.24
absorption rate constant ([3]; human): 0.48 h⁻¹
decrease of inter-patient variability of CL/F with inclusion of AST ([3]; human): 10%
fold lower apparent oral clearance ([3]; human, po): 2 fold
effect of concomitant drugs as covariates on CL/F [3]: None of the concomitant drugs considered as covariates were significant
IC50 ([4]; Homo sapiens, Neutrophil, read-out: IC50 (half-saturation effect of palbociclib on the bone marrow)): 384 nM
cumulative nature of decreases in ANCs ([4]; courses 3 and 4 predicted from courses 1 and 2): not cumulative
time individuals had grade 3 or greater neutropenia ([4]; median (5th–95th percentile) (abstract)): 4 (0, 21) days
ANC nadir ([4]; median (5th–95th percentile), first two courses): 1.0 (0.4, 3.3) × 10^3/µL
time below an ANC of 0.5 × 10^3/µL (grade 4 neutropenia) [4, 5]: 0 (0, 11) days/course
time below an ANC of 1.0 × 10^3/µL (grade 3 neutropenia) [4, 5]: 4 (0, 21) days/course
time below an ANC of 1.5 × 10^3/µL (grade 2 neutropenia) [4, 5]: 15 (0, 35) days/course
IC50 (platelets (PLT); Homo sapiens, Platelet, read-out: IC50 (half-saturation effect of palbociclib on the bone marrow)): 559 nM
individuals with grade 1 (<100 ×) or greater thrombocytopenia (platelets (PLT); individual model estimates, first two courses, 31 individuals): three
